In US4430324A (priority 1982, dated 1984):
Read-outs that look alike come from different tables or passages of the source.

Experiments:
cariogenic bacteria = assay: inhibition of bacterial growth, overall findings; conditions: all bacterial isolates tested
S. sanguis 10557 = conditions: for IC50: read-out: ID/50; for ID/50 (recalculated as ppm F): 1440 min
S. sanguis 10556 = conditions: for IC50: read-out: ID/50; for ID/50 (recalculated as ppm F): 1440 min
S. salivarius H-257 = conditions: for IC50: read-out: ID/50; for ID/50 (recalculated as ppm F): 1440 min
S. salivarius SS4 = conditions: for IC50: read-out: ID/50; for ID/50 (recalculated as ppm F): 1440 min
S. mutans OMZ-176 = conditions: for IC50: read-out: ID/50; for ID/50 (recalculated as ppm F): 1440 min
L. casei = conditions: for IC50: read-out: ID/50; for ID/50 (recalculated as ppm F): 1440 min
S. mutans 6715 = conditions: for IC50: read-out: ID/50; for ID/50 (recalculated as ppm F): 1440 min
artificial plaque = assay: in vitro antiplaque study; format: cell-based, clinical plaque samples; conditions: for Percentage Inhibition of Growth of Artificial Plaque: means ±95% confidence limits
Description: The in vitro plaque was initiated on uniformly sized aluminum plummets which were previously coated for 20 min. with wax stimulated whole saliva. These coated plummets were then placed in a Trypticase (B.B.L.) 1% sucrose growth medium inoculated with clinical plaque samples. After 5 hours of incubation at 37° C. the plummets were immersed in a solution containing equal volumes of whole saliva and the test compound for one minute and subsequently suspended overnight (37° C.) in a 20% solution of saliva supernatant. On the second day the plummets were retreated with the test solution (1 min.) and reincubated in inoculated Trypticase-sucrose growth medium for 5 hours. After this period of time the plaques were rinsed in distilled water for 5 minutes. The plaques were then removed from the plummets by sonication in 10 ml distilled water and quantitated in a Unicam SP500 spectrophotometer at 570 nm.
Five replicas per test compound were examined.

pH of solution = format: physicochemical

| Compound | inhibition of bacterial growth (cariogenic bacteria) | IC50 (S. sanguis 10557) | IC50 (S. sanguis 10556) | IC50 (S. salivarius H-257) | IC50 (S. salivarius SS4) | IC50 (S. mutans OMZ-176) | IC50 (L. casei) | IC50 (S. mutans 6715) | further results |
| --- | --- | --- | --- | --- | --- | --- | --- | --- | --- |
| [Fe] [Fe] | little or no effect | – | – | – | – | – | – | – | – |
| [Mg] [Mg] | little or no effect | – | – | – | – | – | – | – | – |
| [Cl-].[Na+] [Na] | little or no effect | – | – | – | – | – | – | – | – |
| [Cl-].[Cl-].[Co+2] [CoCl2] | – | 3.84 mM | 2890 µM | 550 µM | 5.96 mM | 10.6 mM | > 12 mM | 7.72 mM | – |
| [Mn] [Mn] | little or no effect | – | – | – | – | – | – | – | – |
| O=S(=O)([O-])[O-].[Zn+2] [ZnSO4] | – | 0.4 mM | 360 µM | 750 µM | 6 mM | 7.5 mM | 10.4 mM | 5.74 mM | antiplaque activity (artificial plaque; 6.0-30.0 mM/L zinc): no difference in activity between ZnSO4 and ZnNH4 F3; Percentage Inhibition of Growth of Artificial Plaque (artificial plaque; zinc conc. 6.0 mM/L): 47 ± 14%; Percentage Inhibition of Growth of Artificial Plaque (artificial plaque; zinc conc. 15.0 mM/L): 51 ± 14%; Percentage Inhibition of Growth of Artificial Plaque (artificial plaque; zinc conc. 30.0 mM/L): 64 ± 14% |
| N.N.[F-].[F-].[F-].[F-].[F-].[F-].[Sn] [Sn(NH4)2 F6, stannic ammonium fluoride] | less active than the stannous form SnF2 | – | – | – | – | – | – | – | ID/50 (recalculated as ppm F) (S. sanguis 10557; Table III, S. sanguis 10557): 45 ppm F; IC50 (S. sanguis 10557; Table II, fluoride salts, S. sanguis 10557, means of triplicate experiments): 0.39 mM; ID/50 (recalculated as ppm F) (S. sanguis 10556; Table III, S. sanguis 10556): 25 ppm F; IC50 (S. sanguis 10556; Table II, fluoride salts, S. sanguis 10556, means of triplicate experiments): 220 µM; ID/50 (recalculated as ppm F) (S. salivarius H-257; Table III, S. salivarius H-257): 46 ppm F; IC50 (S. salivarius H-257; Table II, fluoride salts, S. salivarius H-257, means of triplicate experiments): 400 µM; ID/50 (recalculated as ppm F) (S. salivarius SS4; Table III, S. salivarius SS4): 188 ppm F; IC50 (S. salivarius SS4; Table II, fluoride salts, S. salivarius SS4, means of triplicate experiments): 1.65 mM; ID/50 (recalculated as ppm F) (S. mutans OMZ-176; Table III, S. mutans OMZ-176): 163 ppm F; IC50 (S. mutans OMZ-176; Table II, fluoride salts, S. mutans OMZ-176, means of triplicate experiments): 1.43 mM; ID/50 (recalculated as ppm F) (L. casei; Table III, L. casei): 288 ppm F; IC50 (L. casei; Table II, fluoride salts, L. casei, means of triplicate experiments): 2.53 mM; ID/50 (recalculated as ppm F) (S. mutans 6715; Table III, S. mutans 6715): 137 ppm F; IC50 (S. mutans 6715; Table II, fluoride salts, S. mutans 6715, means of triplicate experiments): 1.2 mM; pH values in solution (pH of solution): ~3.8 |
| [Ca] [Ca] | little or no effect | – | – | – | – | – | – | – | – |
| [Cl][Sn][Cl] [SnCl2] | – | 1.88 mM | 1270 µM | 3640 µM | 1.45 mM | 3.68 mM | 3 to 6 mM | 2.26 mM | – |
| SnF2 | – | 0.84 mM | 440 µM | 740 µM | 2.45 mM | 2.28 mM | 2.97 mM | 1.5 mM | ID/50 (recalculated as ppm F) (S. sanguis 10557): 32; ID/50 (recalculated as ppm F) (S. sanguis 10556): 17; ID/50 (recalculated as ppm F) (S. salivarius H-257): 29; ID/50 (recalculated as ppm F) (S. salivarius SS4): 93; ID/50 (recalculated as ppm F) (S. mutans OMZ-176): 87; % Reduction in Dissolution (pH 4): 57%; % Reduction in Dissolution (pH 5): 54%; % Reduction in Dissolution (pH 6): 45%; % Reduction in Dissolution (pH 7): 43%; ID/50 (recalculated as ppm F) (L. casei): 113; ID/50 (recalculated as ppm F) (S. mutans 6715): 56 |
| Al2 (SO4)3 | – | 8.45 mM | 5550 µM | 5400 µM | 7.8 mM | 5.91 mM | 6.45 mM | 3.56 mM | – |
